From patent publication US10370647B2 (priority 2015, dated 2019)

Tests used:
Low cells = assay type: in vivo, BALB/cAJcl-nu/nu mice; conditions: KF cell-derived tumors (Low group); 7 days after Paclitaxel 1 mg/ml/mouse
KFtx cells = assay type: in vivo, BALB/cAJcl-nu/nu mice; conditions: KFTx cell-derived tumors; 7 days after Paclitaxel 1 mg/ml/mouse
KFtx series = experiment: Paclitaxel resistance properties of the KFtx series (surviving cells, Cell Titer-Glo); assay type: cell-based; conditions: Low and Empty Low (low UCA1 expression); PTx 0 to 500 nM, 48 hours
Protocol: Paclitaxel resistance properties of the KFtx series comprising the cell line stably expressing UCA1 were compared. The KFtx series were seeded at a cell density of 6×10^3/well on a 96-well plate, and after the cells had been cultured at 37° C. for 12 hours, during which the cells were considered to adhere to the plate, the medium was exchanged with PTx-containing RPMI. The concentrations of PTx were set to be 0, 2, 5, 20, 50, 100, 200, and 500 nM. The cells were further cultured at 37° C. for 48 hours, and the number of surviving cells was then quantified using Cell Titer-Glo (Promega) and was then compared.

CC(=O)O[C@H]1C(=O)[C@@]2(C)[C@H]([C@H](OC(=O)c3ccccc3)[C@]3(O)C[C@H](OC(=O)[C@H](O)[C@@H](NC(=O)c4ccccc4)c4ccccc4)C(C)=C1C3(C)C)[C@]1(OC(C)=O)CO[C@@H]1C[C@@H]2O [PTx, Paclitaxel]
tumors disappeared (Rluc imaging) (Low cells): ≥ 95%
tumors after administration of PTx (Rluc imaging) (KFtx cells): remained
number of surviving cells (KFtx series): significantly decreased
